Experimental findings from patent US9266857B2, “Bicyclic AZA compounds as muscarinic M1 receptor agonists” (Heptares Therapeutics Limited, priority 2012, dated 2016) are described below.

Read-outs that look alike come from different tables or passages of the source. Bounds are passed on as bounds.

Assay [1] concerns the target T1, human muscarinic M1 receptor (Homo sapiens, UniProt P11229).
T1 construct: expressed in transfected cells
T1 sequence (P11229 1-460): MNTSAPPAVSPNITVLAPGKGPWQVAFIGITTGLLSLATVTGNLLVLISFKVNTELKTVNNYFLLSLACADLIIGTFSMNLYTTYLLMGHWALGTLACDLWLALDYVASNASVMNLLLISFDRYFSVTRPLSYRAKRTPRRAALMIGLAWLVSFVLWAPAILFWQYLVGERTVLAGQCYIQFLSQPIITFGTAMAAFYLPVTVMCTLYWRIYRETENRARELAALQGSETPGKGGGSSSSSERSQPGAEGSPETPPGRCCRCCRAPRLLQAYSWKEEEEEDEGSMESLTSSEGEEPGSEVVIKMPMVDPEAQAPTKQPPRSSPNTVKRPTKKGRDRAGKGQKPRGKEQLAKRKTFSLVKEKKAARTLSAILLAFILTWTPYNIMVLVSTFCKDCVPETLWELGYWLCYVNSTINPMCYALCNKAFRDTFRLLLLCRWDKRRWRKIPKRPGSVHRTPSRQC
Briefly: Alphascreen Surefire phospho-ERK1/2 functional assay, M1. In kind it is cell-based. The note with it: for EC50: CHO cells stably expressing human M1, phospho-ERK1/2, read-out: pEC50 M1 (converted); for Emax: CHO. Here is the method: (§1) ERK1/2 phosphorylation is a downstream consequence of both Gq/11 and Gi/o protein coupled receptor activation, making it highly suitable for the assessment of M1, M3 (Gq/11 coupled) and M2, M4 receptors (Gi/o coupled), rather than using different assay formats for different receptor subtypes. CHO cells stably expressing the human muscarinic M1, M2, M3 or M4 receptor were plated (25K/well) onto 96-well tissue culture plates in MEM-alpha+10% dialysed FBS. Once adhered, cells were serum-starved overnight. Agonist stimulation was performed by the addition of 5 μL agonist to the cells for 5 min (37° C.). Media was removed and 50 μL of lysis buffer added. After 15 min, a 4 μL sample was transferred to 384-well plate and 7 μL of detection mixture added. Plates were incubated for 2 h with gentle agitation in the dark and then read on a PHERAstar plate reader.
(§2) pEC50 and Emax figures were calculated from the resulting data for each receptor subtype.
In general terms: Alpha assays give light when donor and acceptor beads are brought close together.

The target in assay [2] is T2, human muscarinic M2 receptor (Homo sapiens, UniProt P08172).
T2 construct: expressed in transfected cells
T2 sequence (P08172 1-466): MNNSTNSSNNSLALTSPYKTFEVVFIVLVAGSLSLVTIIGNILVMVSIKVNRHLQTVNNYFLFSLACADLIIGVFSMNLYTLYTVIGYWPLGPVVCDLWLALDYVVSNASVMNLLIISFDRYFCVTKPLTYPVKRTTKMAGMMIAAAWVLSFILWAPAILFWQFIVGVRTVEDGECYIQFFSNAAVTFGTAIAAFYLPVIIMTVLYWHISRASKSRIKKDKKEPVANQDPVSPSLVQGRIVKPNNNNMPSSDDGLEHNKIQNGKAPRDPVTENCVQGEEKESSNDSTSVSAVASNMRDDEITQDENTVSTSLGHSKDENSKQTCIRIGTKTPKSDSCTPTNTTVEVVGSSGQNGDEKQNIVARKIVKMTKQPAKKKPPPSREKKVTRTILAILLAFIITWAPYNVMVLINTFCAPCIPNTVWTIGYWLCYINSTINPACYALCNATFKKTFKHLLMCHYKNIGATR
Briefly: Alphascreen Surefire phospho-ERK1/2 functional assay, M2. It is filed as cell-based. The note with it: for EC50: CHO cells stably expressing human M2, phospho-ERK1/2, read-out: pEC50 M2 (converted); for Emax: CHO, read-out: % Emax cf. ACh, M2. Here is the method: as §1, §2

The target of assay [3] is T3, human muscarinic M3 receptor (Homo sapiens, UniProt P20309).
T3 construct: expressed in transfected cells
Kind of assay: Alphascreen Surefire phospho-ERK1/2 functional assay, M3. It is filed as cell-based. To be noted: for EC50: CHO cells stably expressing human M3, phospho-ERK1/2, read-out: pEC50 M3 (converted); for Emax: CHO, read-out: % Emax cf. ACh, M3. How it is done: as §1, §2

The target in assay [4] is T4, human muscarinic M4 receptor (Homo sapiens, UniProt P08173).
T4 construct: expressed in transfected cells
T4 sequence (P08173 1-479): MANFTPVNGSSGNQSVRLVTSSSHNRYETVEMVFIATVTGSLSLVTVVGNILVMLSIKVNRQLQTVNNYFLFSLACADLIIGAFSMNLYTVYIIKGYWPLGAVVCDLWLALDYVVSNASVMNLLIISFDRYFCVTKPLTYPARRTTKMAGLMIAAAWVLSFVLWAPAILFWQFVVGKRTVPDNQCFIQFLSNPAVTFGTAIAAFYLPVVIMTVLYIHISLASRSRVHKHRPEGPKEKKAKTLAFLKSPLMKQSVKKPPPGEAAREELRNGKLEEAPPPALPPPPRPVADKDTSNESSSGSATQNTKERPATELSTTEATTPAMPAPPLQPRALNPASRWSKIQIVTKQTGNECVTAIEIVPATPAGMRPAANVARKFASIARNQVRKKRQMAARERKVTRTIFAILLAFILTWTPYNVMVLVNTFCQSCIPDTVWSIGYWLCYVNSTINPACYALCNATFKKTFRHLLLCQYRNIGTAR
Briefly: Alphascreen Surefire phospho-ERK1/2 functional assay, M4. It is filed as cell-based. To be noted: for EC50: CHO cells stably expressing human M4, phospho-ERK1/2, read-out: pEC50 M4 (converted); for Emax: CHO. Here is the method:
as §1, §2

The subject of assay [5] is scopolamine-induced amnesia. Briefly: Passive avoidance, scopolamine-induced amnesia. It is filed as in vivo. Here is the method: Studies were carried out as described previously by Foley et al., (2004) Neuropsychopharmacology. In the passive avoidance task scopolamine administration (1 mg/kg, i.p.) at 6 hours following training rendered animals amnesic of the paradigm. A dose range of 3, 10, and 30 mg/kg (po) free base, administered 90 minutes prior to the training period via oral gavage, was examined.

Assay [6] concerns fEPSPs in the CA1 region of rat hippocampal slices. Kind of assay: CA1 cell firing, fEPSPs in hippocampal slices. It is filed as cell-based. The note with it: CA1 fEPSP amplitude, 6 slices averaged. Here is the method:
Rat hippocampal slices of 400 μm thickness were cut in chilled (<4° C.) artificial cerebrospinal fluid (aCSF, composition in mM: NaCl 127, KCl 1.6, KH2PO4 1.24, MgSO4 1.3, CaCl2 2.4, NaHCO3 26 and D-glucose 10) using vibratome. Slices were maintained in oxygenated (95% O2/5% CO2) aCSF at room temperature for at least 1 hr prior to electrophysiological recording, after which they were transferred to an interface chamber and constantly perfused with warmed (30° C.) oxygenated aCSF at a flow rate of 1.5-3 ml.min-1. Schaffer collaterals were then stimulated (1-20 V, 0.1 ms pulse width, 0.033 Hz) with a concentric bipolar electrode to evoke field excitatory post synaptic potentials (fEPSPs) recorded from the stratum radiatum of the CA1 region. Experiments were performed to examine the effect of compound compared to 1 μM carbachol (CCh), on the amplitude of fEPSPs in the CA1 region of rat hippocampal slices. 1 μM CCh was initially applied until steady-state, followed by wash, before performing a five point cumulative concentration-response to compound. Each compound was tested on 6 slices and results averaged. Drug preparation; compound was dissolved in 100% DMSO at a stock concentration of 30 mM, and diluted according to requirements, carbamoylcholine chloride (CCh) was purchased from Sigma (Cat#C4382) and dissolved at a stock concentration of 1 mM in ddH2O.

What is called Emax is the greatest response seen or fitted, relative to the assay's reference. Broadly, the ED50 is the dose at which the effect has come halfway, by size or by number of responders.

T3 sequence (P20309 whole entry): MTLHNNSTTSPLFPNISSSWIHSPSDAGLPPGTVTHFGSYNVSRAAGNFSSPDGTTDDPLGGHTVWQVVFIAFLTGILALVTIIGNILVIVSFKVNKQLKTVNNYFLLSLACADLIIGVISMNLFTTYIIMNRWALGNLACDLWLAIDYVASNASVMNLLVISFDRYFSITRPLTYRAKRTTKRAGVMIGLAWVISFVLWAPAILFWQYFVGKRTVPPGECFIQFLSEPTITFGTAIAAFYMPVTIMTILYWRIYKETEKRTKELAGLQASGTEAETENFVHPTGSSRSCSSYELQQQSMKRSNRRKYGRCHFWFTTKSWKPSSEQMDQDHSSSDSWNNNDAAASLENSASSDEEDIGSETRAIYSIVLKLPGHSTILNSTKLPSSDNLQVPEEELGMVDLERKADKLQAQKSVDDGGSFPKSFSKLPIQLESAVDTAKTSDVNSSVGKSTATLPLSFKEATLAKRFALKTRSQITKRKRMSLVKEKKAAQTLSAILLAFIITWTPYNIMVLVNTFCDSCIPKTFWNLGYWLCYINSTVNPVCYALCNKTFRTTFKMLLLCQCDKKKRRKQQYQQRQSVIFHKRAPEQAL

For the molecule `CCOC(=O)N1CCC2(CC(N3CCC(C(=O)NC4(C)CCC4)CC3)C2)C1` (single isomer, unassigned) [Example 9 - Isomer 2, ethyl 2-{4-[(1-methylcyclobutyl)carbamoyl]piperidin-1-yl}-6-azaspiro[3.4]octane-6-carboxylate], the EC50 is 36.3 nM in assay [1]; more than 20000 nM in assay [2]; more than 20000 nM in assay [3]; 182 nM in assay [4]; 5700 nM in assay [6]. Also, the Emax is 100% in assay [1] (read-out: % Emax cf. ACh, M1, CHO cells stably expressing human M1, relative to ACh); 15% in assay [2]; 9% in assay [3]; 66% in assay [4] (read-out: % Emax cf. ACh, M4, CHO cells stably expressing human M4, relative to ACh). Also, in assay [5] (3, 10 and 30 mg/kg po), the “reversal of scopolamine-induced amnesia of the passive avoidance paradigm” value is on record as “reverse scopolamine-induced amnesia of the paradigm in a dose-dependent manner”. In addition, the ED50 in assay [5] (po, 90 minutes prior to training, scopolamine 1 mg/kg i.p., read-out: approximate ED50, reversal of scopolamine-induced amnesia) was approximately 10 mg/kg.

For the molecule `[2H]C([2H])([2H])C1(NC(=O)C2CCN(C3CC4(CCN(C(=O)OCC)C4)C3)CC2)CCC1` (single isomer, unassigned) [Example 21 - Isomer 2, ethyl 2-(4-{[1-(1,1,1-trideuteromethyl)cyclobutyl]carbamoyl}piperidin-1-yl)-6-azaspiro[3.4]octane-6-carboxylate], the EC50 in assay [1] was 67.6 nM; in assay [2] it was more than 20000 nM; in assay [3], more than 20000 nM; in assay [4], 170 nM. Besides, the Emax in assay [1] (read-out: % Emax cf. ACh, M1) is 107%; in assay [2], 9%; in assay [3] it was 12%; in assay [4] (read-out: % Emax cf. ACh, M4), 111%.

On to `[2H]C([2H])([2H])COC(=O)N1CCC2(CC(N3CCC(C(=O)NC4(C)CCC4)CC3)C2)C1` (single isomer, unassigned) [Example 25 - Isomer 2, (2,2,2-trideutero)ethyl 2-{4-[(1-methylcyclobutyl)carbamoyl]piperidin-1-yl}-6-azaspiro[3.4]octane-6-carboxylate], for which the EC50 is 53.7 nM in assay [1], more than 20000 nM in assay [2], more than 20000 nM in assay [3] and 174 nM in assay [4]. For the same molecule, the Emax came to 108% in assay [1] (read-out: % Emax cf. ACh, M1); 23% in assay [2]; 17% in assay [3]; 83% in assay [4] (read-out: % Emax cf. ACh, M4).

With `[2H]C([2H])([2H])C([2H])([2H])OC(=O)N1CCC2(CC(N3CCC(C(=O)NC4(C)CCC4)CC3)C2)C1` (single isomer, unassigned) [Example 29 - Isomer 2, (1,1,2,2,2-pentadeutero)ethyl 2-{4-[(1-methylcyclobutyl)carbamoyl]piperidin-1-yl}-6-azaspiro[3.4]octane-6-carboxylate], the EC50 in assay [1] was 55 nM; in assay [2], more than 20000 nM; in assay [3], more than 20000 nM; in assay [4] it was 186 nM. Moreover, the Emax in assay [1] (read-out: % Emax cf. ACh, M1) was found to be 107%; in assay [2], 18%; in assay [3] it was 13%; in assay [4] (read-out: % Emax cf. ACh, M4) it was 91%.
